Assay results taken from article PMC10746280, “Bacterial efflux pump modulators prevent bacterial growth in macrophages and under broth conditions that mimic the host environment” (mBio, 2023).

Key:
RAW 264.7 macrophages = assay: SAFIRE macrophage assay: host toxicity (adherent macrophage count, morphology); assay type: cell-based
Outline: (§1)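 RAW 264.7 macrophages infected with S. Typhimurium SL1344 sifB::gfp (MOI ~30), gentamicin 40 µg/mL, then compound from 2 h to 18 h post-infection. Confocal imaging with MitoTracker and DAPI; toxicity as adherent MitoTracker-positive macrophage count, bacterial load as GFP+ macrophage area.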

[1] = tested on: S. Typhimurium SL1344 (sifB::gfp) in RAW 264.7 macrophages; assay: SAFIRE macrophage assay: intracellular bacterial load (GFP signal within macrophages); assay type: cell-based, Salmonella enterica serotype Typhimurium
Outline: as §1

[2] = 5 uM, 'Toxic' given instead of a score
[3] = 25 uM, 'Toxic' given instead of a score
[4] = 5 uM compound, n=1, DMSO solvent control = 100
[5] = 25 uM compound, n=1, DMSO solvent control = 100
[6] = 5 uM compound, n=1, DMSO solvent control = 98, rifampicin 2 μg/mL = 65
[7] = 25 uM compound, n=1, DMSO solvent control = 98, rifampicin 2 μg/mL = 65

Row | SMILES | 5 uM Avg Cell # Score (RAW 264.7 macrophages; 5 uM) | 25 uM Avg Cell # Score (RAW 264.7 macrophages; 25 uM) | 5 uM Avg Antibacterial Score [1, 2] | 25 uM Avg Antibacterial Score [1, 3] | 5 uM Avg Cell # Score (RAW 264.7 macrophages; [4]) | 25 uM Avg Cell # Score (RAW 264.7 macrophages; [5]) | 5 uM Avg Antibacterial Score [1, 6] | 25 uM Avg Antibacterial Score [1, 7]
1 | OC(COc1ccccc1)CN1CCC(Nc2nccs2)CC1 (centres unmarked) [CU052] | 110 | 165 | 106 | 93 |  |  |  | 
2 | OC(COc1ccc(Cl)c(Cl)c1)CN1CCC(F)(F)C1 (centres unmarked) [CU124] | 80 | 71 | 102 | 85 |  |  |  | 
3 | OC(COc1ccc(F)cc1F)CN1CCC(Nc2ncccn2)CC1 (centres unmarked) [CU048] | 85 | 159 | 105 | 95 |  |  |  | 
4 | OC(COc1cccc(C(F)(F)F)c1)CN1CCC(Nc2nccc(C(F)(F)F)n2)CC1 (centres unmarked) [CU103] | 82 | 71 | 9 | Toxic |  |  |  | 
5 | COc1ccc(OCC(O)CN2CCC(Nc3ncccn3)CC2)cc1 (centres unmarked) [CU046] | 74 | 173 | 103 | 75 |  |  |  | 
6 | Cc1ccc(Sc2cccc3nc(N)nc(N)c23)cc1 [EPM43] | 93 | 67 | 81 | Toxic |  |  |  | 
7 | CN(C)CC1COCCN1CC(O)COc1ccc(Cl)c(Cl)c1 (centres unmarked) [CU221] | 104 | 106 | 106 | 84 |  |  |  | 
8 | O=C1OC(COc2ccc(Cl)c(Cl)c2)CN1c1ccc(N2CCOCC2)cc1 (centres unmarked) [CU195] | 114 | 82 | 107 | 103 |  |  |  | 
9 | CC(C)(C)c1nc(NC(=N)N)sc1Br [EPM30] | 97 | 66 | 92 | Toxic |  |  |  | 
10 | OC(CNCc1cccc2ccccc12)COc1ccc(Cl)c(Cl)c1 (centres unmarked) [CU133] | 84 | 92 | 60 | Toxic |  |  |  | 
11 | CN(CC(O)COc1ccc(F)c(F)c1)C1CCNCC1 (centres unmarked) [CU178] | 99 | 97 | 72 | 51 |  |  |  | 
12 | OC(COc1ccc(Cl)cc1Cl)CN1CCC(Nc2nccc(C(F)(F)F)n2)CC1 (centres unmarked) [CU038] | 85 | 181 | 95 | Toxic |  |  |  | 
13 | OC(COc1ccc(Cl)c(Cl)c1)CN1CCC(N2CCOCC2)CC1 (centres unmarked) [CU185] | 120 | 125 | 87 | 76 |  |  |  | 
14 | OC(CNC1CCNCC1)COc1cc(Cl)cc(Cl)c1 (centres unmarked) [CU202] | 100 | 95 | 34 | 11 |  |  |  | 
15 | CC(=O)N(CCNc1nccc(C(F)(F)F)n1)CC(O)COc1ccc(Cl)c(Cl)c1 (centres unmarked) [CU071] | 62 | 56 | 85 | Toxic |  |  |  | 
16 | OC(COc1ccc(F)cc1F)CN1CCC(Nc2nccc(C(F)(F)F)n2)CC1 (centres unmarked) [CU039] | 90 | 145 | 107 | 13 |  |  |  | 
17 | OC1CCN(CC(O)COc2ccc(Cl)c(Cl)c2)CC1 (centres unmarked) [CU164] | 98 | 126 | 106 | 82 |  |  |  | 
18 | COC(=O)c1ccc(OCC(O)CN2CCC(Nc3nccc(C(F)(F)F)n3)CC2)cc1 (centres unmarked) [CU075] | 86 | 56 | 68 | Toxic |  |  |  | 
19 | OC(COc1ccc(Cl)c(Cl)c1)CN1CCC(NC2CC2)C1 (centres unmarked) [CU028] | 85 | 134 | 88 | 41 |  |  |  | 
20 | CC(=O)Nc1ccc(OCC(O)CN2CCC(Nc3nccc(C(F)(F)F)n3)CC2)cc1 (centres unmarked) [CU076] | 79 | 86 | 102 | 103 |  |  |  | 
21 | N[C@H]1CC[C@H](NCC(O)COc2cc(Cl)cc(Cl)c2)CC1 (some centres unmarked) [CU217] | 106 | 96 | 65 | 16 |  |  |  | 
22 | OC(COc1ccc(Cl)c(Cl)c1)CN1CCC(Nc2ncccn2)CC1 (centres unmarked) [CU042] | 77 | 90 | 105 | 23 |  |  |  | 

Row | SMILES | 5 uM Avg Cell # Score (RAW 264.7 macrophages; 5 uM) | 25 uM Avg Cell # Score (RAW 264.7 macrophages; 25 uM) | 5 uM Avg Antibacterial Score [1, 2] | 25 uM Avg Antibacterial Score [1, 3] | 5 uM Avg Cell # Score (RAW 264.7 macrophages; [4]) | 25 uM Avg Cell # Score (RAW 264.7 macrophages; [5]) | 5 uM Avg Antibacterial Score [1, 6] | 25 uM Avg Antibacterial Score [1, 7]
23 | OC(COc1c(Cl)cccc1Cl)CN1CCC(Nc2nccc(C(F)(F)F)n2)C1 (centres unmarked) [CU115] | 93 | 59 | 99 | Toxic |  |  |  | 
24 | OC(COc1ccc(F)cc1)CN1CCC(Nc2nccc(C(F)(F)F)n2)C1 (centres unmarked) [CU097] | 95 | 95 | 100 | 6.44 |  |  |  | 
25 | CN(CC(O)COc1ccc(Cl)c(Cl)c1)C1CCOC1 (centres unmarked) [CU122] | 81 | 74 | 102 | 81 |  |  |  | 
26 | NC(=O)[C@H]1CC[C@@H](NCC(O)COc2ccc(Cl)c(Cl)c2)C1 (some centres unmarked) [CU066] | 91 | 86 | 103 | 100 |  |  |  | 
27 | CC(C)N(CCNc1nccc(C(F)(F)F)n1)CC(O)COc1ccc(Cl)c(Cl)c1 (centres unmarked) [CU072] | 62 | 94 | Toxic | Toxic |  |  |  | 
28 | OC(COc1ccc(Cl)c(Cl)c1)CN1CCOC2(CCOCC2)C1 (centres unmarked) [CU027] | 58 | 104 | 107 | 95 |  |  |  | 
29 | NCCC1CCN(CC(O)COc2ccc(Cl)c(Cl)c2)CC1 (centres unmarked) [CU249] |  |  |  |  | 123 | 56 | 17 | Toxic
30 | OC(COc1ccc(Cl)c(Cl)c1)CN1CC2CCC1CO2 (centres unmarked) [CU224] | 117 | 95 | 100 | 69 |  |  |  | 
31 | CNC1CCN(CC(O)COc2ccc(F)c(F)c2)C1 (centres unmarked) [CU176] | 102 | 111 | 83 | 58 |  |  |  | 
32 | NC1CCN(CC(O)COc2ccc(F)cc2)C1 (centres unmarked) [CU153] | 103 | 131 | 106 | 85 |  |  |  | 
33 | OC(CN[C@H]1[C@@H]2CNC[C@@H]21)COc1ccc(Cl)c(Cl)c1 (some centres unmarked) [CU236] |  |  |  |  | 121 | 99 | 53 | 18
34 | OC(COc1ccccc1)CN1CCC(Nc2nccc(C(F)(F)F)n2)C1 (centres unmarked) [CU083] | 89 | 95 | 100 | 32 |  |  |  | 
35 | OC(COc1ccc(Cl)c(Cl)c1)CN1Cc2ccccc2C1 (centres unmarked) [CU136] | 83 | 63 | 102 | 60 |  |  |  | 
36 | O[C@H](COc1ccc(Cl)c(Cl)c1)CN1CCC(Nc2nccc(C(F)(F)F)n2)CC1 [CU137] | 91 | 67 | 5.37 | Toxic |  |  |  | 
37 | Cc1cccc(OCC(O)CN2CCC(Nc3nccc(C(F)(F)F)n3)CC2)c1 (centres unmarked) [CU108] | 94 | 27 | 28 | Toxic |  |  |  | 
38 | Cc1cccc(OCC(O)CN2CCC(Nc3nccc(C(F)(F)F)n3)C2)c1 (centres unmarked) [CU114] | 99 | 146 | 96 | 5.57 |  |  |  | 
39 | N#Cc1ccc(OCC(O)CN2CCC(Nc3ncccn3)CC2)cc1 (centres unmarked) [CU050] | 102 | 113 | 101 | 95 |  |  |  | 
40 | OC(COc1cccc(Br)c1)CN1CCC(Nc2nccc(C(F)(F)F)n2)C1 (centres unmarked) [CU113] | 92 | 49 | 68 | Toxic |  |  |  | 
41 | OC(COc1cccc(Cl)c1)CN1CCC(Nc2nccc(C(F)(F)F)n2)CC1 (centres unmarked) [CU102] | 82 | 51 | 18 | Toxic |  |  |  | 
42 | COc1cccc(OCC(O)CN2CCC(Nc3nccc(C(F)(F)F)n3)CC2)c1 (centres unmarked) [CU081] | 94 | 93 | 102 | 17 |  |  |  | 
43 | OC(COc1ccc(Cl)c(Cl)c1)CN1CCC2(CCO2)CC1 (centres unmarked) [CU229] | 147 | 141 | 101 | 83 |  |  |  | 
44 | OC(COc1ccccc1F)CN1CCC(Nc2nccc(C(F)(F)F)n2)CC1 (centres unmarked) [CU105] | 79 | 98 | 102 | 14 |  |  |  | 
